Legend:
[1] = molecular target: T1, falcipain-2 (Plasmodium falciparum, UniProt Q8I6U4); test: fluorometric Z-LR-AMC kinetic assay with refolded recombinant enzyme; global fit to mixed inhibition model; format: biochemical
T1 construct: gene FP2A

[2] = molecular target: T1, falcipain-2; test: fluorometric Z-LR-AMC kinetic assay with refolded recombinant enzyme; global fit to competitive and Morrison equations; reversibility by rapid dilution; format: biochemical
[3] = test system: Cc1cc(=O)oc2cc(NC(=O)[C@H](CCCNC(=N)N)NC(=O)[C@H](CC(C)C)NC(=O)OCc3ccccc3)ccc12; test: purified protein; conditions: accommodates completely within falcipain-2 active site

T1 sequence (Q8I6U4 244-484): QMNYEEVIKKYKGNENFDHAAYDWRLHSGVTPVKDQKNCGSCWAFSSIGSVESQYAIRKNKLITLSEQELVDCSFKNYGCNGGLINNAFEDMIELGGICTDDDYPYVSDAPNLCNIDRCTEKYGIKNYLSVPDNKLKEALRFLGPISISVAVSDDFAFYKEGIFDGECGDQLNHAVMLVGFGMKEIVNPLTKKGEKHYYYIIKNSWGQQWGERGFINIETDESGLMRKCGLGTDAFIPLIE

For `C=C1c2cccc(O)c2C(=O)C2=C(O)[C@]3(O)C(=O)C(C(N)=O)=C(O)[C@@H](N(C)C)[C@@H]3[C@@H](O)[C@H]12` [methacycline], the Ki [1] was 84.4 ± 6.5 µM.
`CC(C)(F)C[C@H](N[C@@H](c1ccc(-c2ccc(S(C)(=O)=O)cc2)cc1)C(F)(F)F)C(=O)NC1(C#N)CC1` [odanacatib] was tested, and the Ki [2] was 0.0982 ± 0.0102 µM.
With falcipain-2 (Plasmodium falciparum 3D7) the Km [3] was 4.8 µM.
